Assay results as given in ChEMBL document CHEMBL5316284, “Structural Determinants of Indole-2-carboxamides: Identification of Lead Acetamides with Pan Antimycobacterial Activity” (J Med Chem, 2023).
≈ marks a conversion by molar mass, not a printed value.

Columns and labels:
[1] = test system: Mycobacterium tuberculosis; assay: Antimycobacterial activity against Mycobacterium tuberculosis H37Rv mc2 6206 assessed as inhibition of bacterial growth measured after 7 days by visual analysis; type: functional; settings: H37Rv mc2 6206, 168 h, time 7 day
[2] = Cytotoxicity against human WI26VA4 cells assessed as inhibition of cell growth measured after 72 hrs by MTT assay; type: toxicity, cell-based
[3] = Kinetic solubility of compound at pH 7.4 incubated for 6 hrs by LC-MS/MS analysis; type: physicochemical; settings: buffer, read-out: Kinetic_solubility
[4] = test system: Mycobacteroides abscessus; assay: Antimycobacterial activity against Mycobacterium abscessus […] assessed as inhibition of bacterial growth measured after 5 days by visual analysis; type: functional; settings: 120 h, time 5 day
[5] = Metabolic stability in mouse liver S9 fraction assessed as parent compound remaining at 5 ug/ml after 90 mins in presence of NADPH by LC/MS analysis; type: ADME, subcellular; settings: s9, 1.5 h, dose 5 µg/ml
[6] = Plasma protein binding in human at 10 ug/ml incubated for 4 hrs under shaking condition by LC/MS/MS analysis; type: ADME, cell-free; settings: at 10 µg/mL, read-out: PPB (converted)
[7] = Selectivity index, ratio of IC50 for Cytotoxicity against human WI26VA4 cells to MIC for antimycobacterial activity against Mycobacterium tuberculosis H37Rv mc2 6206; type: toxicity, cell-based; settings: read-out: Selectivity Index
[8] = Metabolic stability in human liver S9 fraction assessed as parent compound remaining at 5 ug/ml after 90 mins in presence of NADPH by LC/MS analysis; type: ADME, subcellular; settings: s9, 1.5 h, dose 5 µg/ml
[9] = Permeability of the compound by PAMPA method; type: ADME
[10] = Selectivity index, ratio of IC50 for Cytotoxicity against human WI26VA4 cells to MIC for antimycobacterial activity against Mycobacterium abscessus […]; type: toxicity, cell-based; settings: read-out: Selectivity Index
Mycobacteroides chelonae = assay: Antimycobacterial activity against Mycobacteroides chelonae ATCC 35752 assessed as inhibition of bacterial growth by visual analysis; type: functional
[11] = test system: Mycobacterium intracellulare subsp. chimaera; assay: Antimycobacterial activity against Mycobacterium intracellulare subsp. chimaera 1501948 assessed as inhibition of bacterial growth by visual analysis; type: functional
[12] = Antimycobacterial activity against Mycobacterium avium subsp. avium 2585R assessed as inhibition of bacterial growth by visual analysis; type: functional
Mycobacterium kansasii = assay: Antimycobacterial activity against Mycobacterium kansasii ATCC 1279 assessed as inhibition of bacterial growth by visual analysis; type: functional
[13] = test system: Mycobacterium intracellulare; assay: Antimycobacterial activity against Mycobacterium intracellulare 1956 assessed as inhibition of bacterial growth by visual analysis; type: functional
[14] = test system: Mycolicibacterium fortuitum; assay: Antimycobacterial activity against Mycobacterium fortuitum ATCC 6841 assessed as inhibition of bacterial growth by visual analysis; type: functional

Row | Structure (SMILES) | MIC [1] | IC50 [2] | solubility kinetic at 6 h [3] | MIC [4] | t1/2 [5] | fraction unbound at 4 h, 10 ug/ml [6] | selectivity ratio [7] | t1/2 [8] | permeability [9] | selectivity ratio [10] | MIC (Mycobacteroides chelonae) | MIC [11] | MIC [12] | MIC (Mycobacterium kansasii) | MIC [13] | MIC [14]
1 | C[C@@H]1[C@H]2C[C@@H](C[C@H]1NC(=O)CNc1ccc(OC(F)(F)F)cc1)C2(C)C | 4 µg/mL (≈ 10.8 µM) | > 20 µg/mL | 4.5 µg/mL (≈ 12.1 µM) | 1 µg/mL (≈ 2.7 µM) | 4.1 h | 0.048 | > 5 | 9.2 h | 3.19 10^-6 cm/s | > 20 | – | – | – | – | – | –
2 | O=C(CNc1cccc(Br)c1)NC12CC3CC(CC(C3)C1)C2 | 32 µg/mL (≈ 88.1 µM) | > 20 µg/mL | 22.2 µg/mL (≈ 61.1 µM) | 1 µg/mL (≈ 2.75 µM) | – | 0.068 | > 20 | 0.5 h | 1.02 10^-6 cm/s | > 20 | – | – | – | – | – | –
3 | O=C(CNc1ccc(Br)cc1)NC12CC3CC(CC(C3)C1)C2 | 8 µg/mL (≈ 22 µM) | > 20 µg/mL | 1.3 µg/mL (≈ 3.58 µM) | 2 µg/mL (≈ 5.51 µM) | 4 h | 0.004 | > 2.5 | 2.5 h | 0.28 10^-6 cm/s | > 10 | – | – | – | – | – | –
4 | C[C@@H]1[C@H]2C[C@@H](C[C@H]1NC(=O)CNc1cccc(Br)c1)C2(C)C | 0.5 µg/mL (≈ 1.37 µM) | > 20 µg/mL | 18.6 µg/mL (≈ 50.9 µM) | 1 µg/mL (≈ 2.74 µM) | 5.8 h | 0.045 | > 40 | 4.2 h | 1.01 10^-6 cm/s | > 20 | 8 µg/mL (≈ 21.9 µM) | 16 µg/mL (≈ 43.8 µM) | 16 µg/mL (≈ 43.8 µM) | 8 µg/mL (≈ 21.9 µM) | 8 µg/mL (≈ 21.9 µM) | 2 µg/mL (≈ 5.47 µM)
5 | O=C(CNc1ccc(OC(F)(F)F)cc1)NC12CC3CC(CC(C3)C1)C2 | 16 µg/mL (≈ 43.4 µM) | > 20 µg/mL | 6.79 µg/mL (≈ 18.4 µM) | 2 µg/mL (≈ 5.43 µM) | 4.1 h | 0.002 | > 1.2 | 3.1 h | 0.47 10^-6 cm/s | > 10 | – | – | – | – | – | –
6 | O=C(CNc1cccc(Cl)c1)NC12CC3CC(CC(C3)C1)C2 | 1 µg/mL (≈ 3.14 µM) | > 20 µg/mL | 30.3 µg/mL (≈ 95 µM) | 1 µg/mL (≈ 3.14 µM) | 1.7 h | 0.002 | > 20 | 5.6 h | 0.32 10^-6 cm/s | > 20 | – | – | – | – | – | –
7 | O=C(CNc1ccc(OC(F)(F)F)cc1)NC1C2CC3CC(C2)CC1C3 (stereo unspecified) | 4 µg/mL (≈ 10.9 µM) | > 20 µg/mL | 20.3 µg/mL (≈ 55.1 µM) | 2 µg/mL (≈ 5.43 µM) | 3.7 h | 0.033 | > 5 | 5.9 h | 3.12 10^-6 cm/s | > 10 | – | – | – | – | – | –
8 | C[C@@H]1[C@H]2C[C@@H](C[C@H]1NC(=O)CNc1ccccc1Cl)C2(C)C | 0.25 µg/mL (≈ 0.779 µM) | > 20 µg/mL | 14.3 µg/mL (≈ 44.6 µM) | 1 µg/mL (≈ 3.12 µM) | 8.6 h | 0.045 | > 80 | 5.1 h | 0.38 10^-6 cm/s | > 20 | 4 µg/mL (≈ 12.5 µM) | > 64 µg/mL | 16 µg/mL (≈ 49.9 µM) | 16 µg/mL (≈ 49.9 µM) | 16 µg/mL (≈ 49.9 µM) | 2 µg/mL (≈ 6.23 µM)
9 | O=C(CNc1ccc(C(F)(F)F)cc1)NC1C2CC3CC(C2)CC1C3 (stereo unspecified) | 2 µg/mL (≈ 5.68 µM) | > 20 µg/mL | 23.9 µg/mL (≈ 67.8 µM) | 4 µg/mL (≈ 11.4 µM) | 15.6 h | 0.057 | > 10 | 5.8 h | 0.34 10^-6 cm/s | > 5 | – | – | – | – | – | –
